Reference: patent publication US20030232101A1, “Topical formulations of resorcinols and cannibinoids and methods of use” (Immugen Pharmaceuticals, Inc., priority 2002, published 2003)
Where two headings read alike, the source gives them in different places.

Key:
[1] = Compound toxicity in the attachment assay, sister plates, MTS dye reduction; format: cell-based; conditions: human, HeLa CD4 LTR β-gal cells, read-out: TC50
Experimental: (§1) At assay termination the assay plates were stained with the soluble tetrazolium-based dye MTS (CellTiter96® Reagent Promega) to determine cell viability and quantify compound toxicity. MTS is metabolized by the mitochondria enzymes of metabolically active cells to a soluble formazan product, allowing the rapid quantitative analysis cell viability and compound cytotoxicity. […] At termination of the assay 20 μL of MTS reagent was added per well and incubated for 4 h at 37° C. Adhesive plate sealers were used in place of the lids, the sealed plate was inverted several times to mix the soluble formazan product and the plate was read spectrophotometrically at 490 nm with a Molecular Devices Vmax plate reader.
The attachment assay was performed with the HeLa CD4 LTR β-gal cells available from the AIDS Research and Reference Reagent Repository. […] HeLa CD4 LTR β-gal cells express cell surface CD4 and contain an LTR β-galactosidase reporter construct. Upon infection either the Tat protein incorporated into the virion or new Tat produced following virus integration and transcription trans-activates the LTR β-gal reporter, leading to expression of the β-galactosidase enzyme. HeLa CD4 LTR β-gal cells are routinely cultured with the required selection antibiotics and screened for mycoplasma contamination. Twenty-four h prior to initiation of the assay cells were trypsinized, counted and 1×10^4 cells placed in a 0.2 cm well in media without selection antibiotics. […] A known titer of virus was then added to the wells and the incubation continued for 1 h. At the end of the incubation the wells were washed 6 times with media and the culture continued for 48 h. At 48 h the wells were washed one time with PBS and β-galactosidase enzyme expression determined by chemiluminescence per manufacturers instructions (Tropix Gal-screen™, Tropix, Bedford, Mass.). Compound toxicity was monitored on sister plates using MTS dye reduction.

HIV-1 = test: HeLa CD4 LTR β-gal HIV-1 attachment assay (Experimental Example 1); format: cell-based; conditions: for IC50: Human immunodeficiency virus 1, HeLa; for β-galactosidase production relative to background (cells alone+compounds): at all times; for inhibition of HIV attachment/entry: following a 24 h pre-incubation
[2] = test system: peripheral blood mononuclear cells (PBMCs); test: PBMC cell viability in time of addition assay (MTS / Trypan Blue); format: cell-based, Human; conditions: read-out: TC50 (the source's name)
Text: (§2) Human peripheral blood mononuclear cells (PBMCs) from a minimum of 2 donors, that have been blasted with PHA and IL-2, were counted, viability determined by Trypan Blue dye exclusion and mixed in equal ratios. Pooled donors were used to minimize the variability observed between individual donors which results from quantitative and qualitative differences in HIV infection and overall response to the PHA and IL-2 of primary lymphocyte populations. The cells were resuspended at 1×10^6 cells /mL in RPMI 1640 without phenol red supplemented with 15% Fetal Bovine Serum (heat inactivated), 2 mM L-glutamine, 100 U/mL penicillin, 100 μg/mL streptomycin, 10 μg/mL gentamycin and IL-2 (20 U/mL, R&D Systems, Minneapolis, Minn.). Fifty microliters of cells were then distributed to the inner 60 wells of a 96 well round bottom microtiter culture plate in a standard format developed by the Infectious Disease Research department of Southern Research Institute. Each plate contains cell control wells (cells only), virus control wells (cells plus virus), and experimental wells (drug plus cells plus virus). Alternatively, cells were cultured in T25 cm^2 or T75 cm^2 tissue culture flasks at a starting density of 1×10^6 cells per ml. Serially diluted compounds were added to the microtiter plate or tissue culture flask followed by the appropriate pre-titered strain of HIV-1. For virus replication inhibition experiments the HIV-1 strain RoJo was used. This is a low passage presumable subtype B pediatric isolate with a syncytium inducing (SI) phenotype in MT-2 cells isolated by Southern Research Institute personnel. All samples were assayed in triplicate where possible with an accompanying determination of compound toxicity. The final volume per well in the microtiter plates was 200 μL. The final volume in the tissue culture flask varied depending upon experimental design and flask size. Assays were incubated for 6 days in a humidified atmosphere at 37° C., 5% CO^2, after which supernatants were collected, for analysis of RT activity and cell viability by MTS dye reduction. Culture were also examined microscopically, any abnormalities noted, and in the case of tissue culture flasks cell counts and viability determined by Trypan Blue Dye exclusion.
(§3) Time of addition assays were performed with PBMCs in two ways. For both assays, PBMCs were isolated and cultured under the conditions as described above. Time of addition assays were carried out in either a tissue culture flask format (T-75 cm^2) or in microtiter wells. In both cases due to the lack of plastic adherence and heterogeneity of the PBMC population for susceptibility to infection, it was not possible to use complete removal of virus following a timed adsorption to synchronize the infection and limit the assay to a single round of infection. Therefore, serial washing by partial removal of the media was used to reduce the concentration of virus and compound (if required) in the assay. Compound addition in relationship to antiviral activity was either assessed over a short addition interval immediately before or after virus addition or for up to 72 h post infection. For all assays virus replication was assessed at 6 days of culture by determining RT expression in cell-free supernatants. In the tissue culture flask format cells were counted and Trypan Blue Dye exclusion used to monitor compound cytotoxicity. Cell viability in the 96 well microtiter plate format was determined by MTS dye reduction. AZT was used as a positive control.
as §1, with “Adhesive plate sealers were used in place of the lids, the sealed plate was inverted several times to mix the soluble formazan product and the plate was read spectrophotometrically at 490 nm with a Molecular Devices Vmax plate reader.” left out

[3] = as above; format: cell-based, Human; conditions: human, read-out: TC50
Text: as §2, §3
as §1, with “Adhesive plate sealers were used in place of the lids, the sealed plate was inverted several times to mix the soluble formazan product and the plate was read spectrophotometrically at 490 nm with a Molecular Devices Vmax plate reader.” left out

HIV-1 strain RoJo = test: PBMC time of addition assay (RT activity in supernatant at 6 days); format: cell-based; conditions: for fold regain of potency (decrease in IC50): after the loss at 2 h; for fold increase in IC50: 24 h pretreatment; for IC50: Human immunodeficiency virus 1, PBMC
Text: as §2, §3
Reverse transcriptase activity was measured in cell-free supernatants. Tritiated thymidine triphosphate (NEN) (TTP) was resuspended in distilled H2O at 5 Ci/mL. Poly rA and oligo dT were prepared as a stock solution which was kept at −20° C. The RT reaction buffer was prepared fresh on a daily basis and consists of 125 μL 1.0 M EGTA, 125 μL dH2O, 110 μL 10% SDS, 50 μL 1.0 M Tris (pH 7.4), 50 μL 1.0 M DTT, and 40 μL 1.0 M MgCl2. […]

[4] = addition prior to infection, pre-treatment 0 h
[5] = addition prior to infection, pre-treatment 2 h
[6] = addition prior to infection, pre-treatment 4 h
[7] = addition prior to infection, pre-treatment 24 h

Row | Compound | CC50 at 48 h ([1]; Experiment 1, pretreat 0 h) [µM] | CC50 at 48 h ([1]; Experiment 1, pretreat 4 h) [µM] | CC50 at 48 h ([1]; Experiment 1, pretreat 24 h) [µM] | CC50 at 48 h ([1]; Experiment 2, pretreat 0 h) [µM] | CC50 at 48 h ([1]; Experiment 2, pretreat 4 h) [µM] | CC50 at 48 h ([1]; Experiment 2, pretreat 24 h) [µM] | IC50 (HIV-1; Experiment 1, pretreat 0 h) [µM] | IC50 (HIV-1; Experiment 1, pretreat 4 h) [µM] | IC50 (HIV-1; Experiment 1, pretreat 24 h) [µM] | IC50 (HIV-1; Experiment 2, pretreat 0 h) [µM] | IC50 (HIV-1; Experiment 2, pretreat 4 h) [µM] | IC50 (HIV-1; Experiment 2, pretreat 24 h) [µM] | β-galactosidase production relative to background (cells alone+compounds) (HIV-1) | inhibition of HIV attachment/entry (HIV-1) | Comment: suppression of β-galactosidase activity (HIV-1; pretreat 0 h) | Comment: suppression of β-galactosidase activity (HIV-1; pretreat 4 h) | Comment: suppression of β-galactosidase activity (HIV-1; pretreat 24 h) | CC50 ([2]; treatment 6 h post) [µM] | CC50 ([2]; treatment at infection) [µM] | CC50 at 6 days ([3]; treatment −4 h pre) [µM] | other results
1 | C=C(C)[C@@H]1CCC(C)=C[C@H]1c1c(O)cc(CCCCC)cc1O [Cannabidiol, reference compound] | > 50 | > 50 | > 50 | > 50 | 41 | 33 | 14.1 | 6.8 | 1.2 | 1.3 | 28 | 1.4 | suppressed β-galactosidase production below background | consistent inhibition | Exp. 1 suppression of β-galactosidase | Suppression of β-galactosidase activity | Suppression of β-galactosidase activity | > 100 | > 100 | > 100 | fold loss of activity (potency) (HIV-1 strain RoJo; 2 h pretreatment, listed as cannabidiol): approximately 10 fold; fold regain of potency (decrease in IC50) (HIV-1 strain RoJo; 4 h pretreatment): activity at 2 , regain 3.3-fold; fold regain of potency (decrease in IC50) (HIV-1 strain RoJo; 4 h pretreatment, listed as cannabidiol): 3.3 fold; fold increase in IC50 (HIV-1 strain RoJo): fold at 4 h then a 17-; fold increase in IC50 (HIV-1 strain RoJo; listed as cannabidiol): 17 fold; IC50 (HIV-1 strain RoJo; addition prior to infection, pre-treatment 0 h, read-out: IC50): 0.58 µM; IC50 (HIV-1 strain RoJo; addition prior to infection, pre-treatment 2 h, read-out: IC50): 5 µM; IC50 (HIV-1 strain RoJo; addition prior to infection, pre-treatment 4 h, read-out: IC50): 1.5 µM
2 | COc1cc(C(C)(C)CCCC(C)C)cc(OC)c1OC [IMG507, 1-(1,1,5-Trimethylhexyl)-3,4,5-trimethoxybenzene] | > 50 | > 50 | > 50 | > 50 | > 50 | > 50 | > 50 | > 50 | > 50 | 16 | > 50 | > 50 | suppressed β-galactosidase production below background | not |  |  |  | > 100 |  |  | transient suppression of virus replication at lower concentrations of compounds (HIV-1; observed consistently, two independent experiments): transient suppression of virus replication; Comment: transient suppression lost at lower concentrations (HIV-1; pretreat 0 h): Transient suppression lost with at lower; Comment: transient suppression lost at lower concentrations (HIV-1; pretreat 4 h): Transient suppression lost with at lower; Comment: transient suppression lost at lower concentrations (HIV-1; pretreat 24 h): Transient suppression t lost with at lower; CC50 ([2]; treatment −4 h pre): > 100 µM; CC50 at 6 days ([3]; treatment at infection): > 100 µM; fold increase in IC50 (HIV-1 strain RoJo): approximately 2 fold; IC50 (HIV-1 strain RoJo; 4 h, treatment −4 h pre): 39.5 µM; IC50 (HIV-1 strain RoJo; 6 h, treatment 6 h post): 46.1 µM; IC50 (HIV-1 strain RoJo; [4]): 6.9 µM; IC50 (HIV-1 strain RoJo; [5]): 6.1 µM; IC50 (HIV-1 strain RoJo; [6]): 5.3 µM; IC50 (HIV-1 strain RoJo; [7]): 10.8 µM; IC50 (HIV-1 strain RoJo; treatment at infection): 67 µM
3 | CC(C)=CCCC1(C)CCc2c(O)cc(C(C)(C)CCCC(C)C)cc2O1 (stereo not drawn) [IMG508, 3,4-Dihydro-2-methyl-2-(4-methyl-3-pentenyl)-7-(1,1,5-trimethylhexyl)-2H-1-benzopyran-5-ol] | > 50 | > 50 | > 50 | > 50 | 29 | 12.2 | 16 | 10.8 | 7.4 | 0.9 | 11 | 2.6 | suppressed β-galactosidase production below background | consistent inhibition | Suppression of β-galactosidase activity, | Suppression of β-galactosidase activity | Suppression of β-galactosidase activity, | > 100 | > 100 | > 100 | Comment: transient suppression lost at lower concentrations (HIV-1; pretreat 0 h): Transient suppression lost with at lower; Comment: transient suppression lost at lower concentrations (HIV-1; pretreat 24 h): Transient suppression lost with at lower; fold decrease in IC50 (HIV-1 strain RoJo; 4 h pretreatment): 4-fold decrease in IC50; IC50 (HIV-1 strain RoJo; 4 h, treatment −4 h pre): 6.2 µM; IC50 (HIV-1 strain RoJo; 6 h, treatment 6 h post): 22.5 µM; IC50 (HIV-1 strain RoJo; [4]): 14.2 µM; IC50 (HIV-1 strain RoJo; [5]): 10.4 µM; IC50 (HIV-1 strain RoJo; [6]): 4.1 µM; IC50 (HIV-1 strain RoJo; [7]): 11.9 µM; IC50 (HIV-1 strain RoJo; treatment at infection): 15.7 µM
